According to the NIST ThermoML archive (doi:10.1016/j.jct.2005.02.004):

Conditions: Liquid, Vibrating tube method

CO [methanol]
Conditions | mass density [kg/m3]
298.26 K, 235 kPa | 785.98
298.26 K, 5000 kPa | 790.69
298.26 K, 9999 kPa | 795.4
298.26 K, 15013 kPa | 799.88
298.26 K, 19987 kPa | 804.1
298.26 K, 25008 kPa | 808.17
298.26 K, 29997 kPa | 812.04
298.26 K, 34991 kPa | 815.76
298.26 K, 39981 kPa | 819.34
323.22 K, 270 kPa | 762.14
323.22 K, 4990 kPa | 767.53
323.22 K, 9984 kPa | 772.87
323.22 K, 14982 kPa | 777.91
323.22 K, 19989 kPa | 782.69
323.22 K, 24986 kPa | 787.21
323.22 K, 29995 kPa | 791.53
323.22 K, 34987 kPa | 795.64
323.22 K, 39993 kPa | 799.6
348.25 K, 366 kPa | 737.29
348.25 K, 4987 kPa | 743.46
348.25 K, 9986 kPa | 749.65
348.25 K, 14991 kPa | 755.42
348.25 K, 20004 kPa | 760.84
348.25 K, 25020 kPa | 765.94
348.25 K, 30013 kPa | 770.76
348.25 K, 34989 kPa | 775.32
348.25 K, 40000 kPa | 779.7
373.26 K, 534 kPa | 710.55
373.26 K, 4983 kPa | 717.67
373.26 K, 9990 kPa | 724.99
373.26 K, 14998 kPa | 731.69
373.26 K, 19985 kPa | 737.88
373.26 K, 24994 kPa | 743.68
373.26 K, 29997 kPa | 749.13
373.26 K, 35001 kPa | 754.27
373.26 K, 39996 kPa | 759.14
398.28 K, 934 kPa | 680.93
398.28 K, 4984 kPa | 689
398.28 K, 9998 kPa | 697.91
398.28 K, 14986 kPa | 705.88
398.28 K, 19987 kPa | 713.16
398.28 K, 24992 kPa | 719.87
398.28 K, 29991 kPa | 726.11
398.28 K, 35005 kPa | 731.99
398.28 K, 40004 kPa | 737.47
